ChEMBL document CHEMBL1201862, “PubChem BioAssay data set” (2004)
Activity calls are given as the source filed them.

Tests used:
[1] = system: Streptococcus sp. 'group A'; assay: Streptococcus pyogenes SK(-)GAS viability under kanamycin – luminescence, BacTiterGlo, confirmation, counter-screen for streptokinase expression inhibitor project, dose response (AID 1900); type: functional, organism-based
Streptokinase A = target: T1, Streptokinase A (Streptococcus pyogenes serotype M1, UniProt P10520); assay: viability-normalized secreted streptokinase activity reduction – plasminogen activation absorbance, OD405, dose response (AID 1914); type: functional, Streptococcus pyogenes M1 GAS;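 further: secreted streptokinase activity via plasminogen activation per viability signal from cell pellet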
T1 sequence (P10520 whole entry): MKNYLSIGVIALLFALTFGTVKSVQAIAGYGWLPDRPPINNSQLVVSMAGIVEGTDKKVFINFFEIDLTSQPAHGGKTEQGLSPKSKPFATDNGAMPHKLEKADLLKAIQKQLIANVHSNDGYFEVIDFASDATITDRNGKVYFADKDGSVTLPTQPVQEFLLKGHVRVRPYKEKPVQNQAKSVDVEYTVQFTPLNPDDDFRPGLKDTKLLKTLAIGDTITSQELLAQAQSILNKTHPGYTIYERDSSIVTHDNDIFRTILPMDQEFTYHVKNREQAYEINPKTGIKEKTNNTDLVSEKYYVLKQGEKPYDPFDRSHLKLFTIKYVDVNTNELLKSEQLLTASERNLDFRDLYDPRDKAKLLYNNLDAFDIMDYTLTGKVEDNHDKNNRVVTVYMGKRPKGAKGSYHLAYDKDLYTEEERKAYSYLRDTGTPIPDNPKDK

[2] = target: T2, G-protein coupled receptor 55 (Homo sapiens, UniProt Q9Y2T6); assay: inhibition of LPI-stimulated GPR55 beta-arrestin translocation – imaging, U2OS, beta-arrestin-GFP, LPI agonist, primary screen (AID 2013); type: functional;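 further: antagonist potency measured as reduced agonist-driven arrestin aggregation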
Streptococcus = assay: GAS UMAA2166 growth inhibition – luminescence, BacTiterGlo, counter-screen for streptokinase expression inhibitor project, dose response (AID 1915); type: functional, organism-based;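 further: potency for reduction of bacterial viability or growth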
Cannabinoid receptor 1 [3] = target: T3, Cannabinoid receptor 1 (Homo sapiens, UniProt P21554); assay: SAR analysis of antagonists of the Cannabinoid Receptor 1 using an Image-Based Assay - Set 2. [Related pubchem assays (depositor defined):AID2013, AID2026]; type: functional
[4] = target: T4, G-protein coupled receptor 35 (Homo sapiens, UniProt Q9HC97); assay: SAR analysis of Agonists of the GPR35 Receptor using an Image-Based Assay - Set 2. [Related pubchem assays (depositor defined):AID2013, AID2026]; type: functional
Cannabinoid receptor 2 [5] = target: T5, Cannabinoid receptor 2 (Homo sapiens, UniProt P34972); assay: SAR analysis of antagonists of the Cannabinoid Receptor 2 using an Image-Based Assay. [Related pubchem assays (depositor defined):AID2013, AID2026]; type: functional
Cannabinoid receptor 1 [6] = target: T3, Cannabinoid receptor 1; assay: SAR analysis of agonists of the Cannabinoid Receptor 1 using an Image-Based Assay - Set 2. [Related pubchem assays (depositor defined):AID2013, AID2026]; type: functional
[7] = target: T4, G-protein coupled receptor 35; assay: SAR analysis of Antagonists of the GPR35 Receptor using an Image-Based Assay - Set 3. [Related pubchem assays (depositor defined):AID2013, AID2026]; type: functional
[8] = target: T2, G-protein coupled receptor 55; assay: blockade of LPI-induced GPR55 arrestin translocation – imaging, U2OS, beta-arrestin-GFP, LPI agonist, set 2, SAR follow-up (AID 2820); type: functional
Cannabinoid receptor 2 [9] = target: T5, Cannabinoid receptor 2; assay: SAR analysis of agonists of the Cannabinoid Receptor 2 using an Image-Based Assay. [Related pubchem assays (depositor defined):AID2013, AID2026]; type: functional
[10] = target: T6, Nucleotide-binding oligomerization domain-containing protein 1 (Homo sapiens, UniProt Q9Y239); assay: SAR analysis of NF-kappaB dependent luciferase using DAP as an inducer - Set 2. [Related pubchem assays (depositor defined):AID1566, AID1575, AID1578, AID1579, AID1849, AID1852, AID2264]; type: functional
T6 sequence (Q9Y239 whole entry): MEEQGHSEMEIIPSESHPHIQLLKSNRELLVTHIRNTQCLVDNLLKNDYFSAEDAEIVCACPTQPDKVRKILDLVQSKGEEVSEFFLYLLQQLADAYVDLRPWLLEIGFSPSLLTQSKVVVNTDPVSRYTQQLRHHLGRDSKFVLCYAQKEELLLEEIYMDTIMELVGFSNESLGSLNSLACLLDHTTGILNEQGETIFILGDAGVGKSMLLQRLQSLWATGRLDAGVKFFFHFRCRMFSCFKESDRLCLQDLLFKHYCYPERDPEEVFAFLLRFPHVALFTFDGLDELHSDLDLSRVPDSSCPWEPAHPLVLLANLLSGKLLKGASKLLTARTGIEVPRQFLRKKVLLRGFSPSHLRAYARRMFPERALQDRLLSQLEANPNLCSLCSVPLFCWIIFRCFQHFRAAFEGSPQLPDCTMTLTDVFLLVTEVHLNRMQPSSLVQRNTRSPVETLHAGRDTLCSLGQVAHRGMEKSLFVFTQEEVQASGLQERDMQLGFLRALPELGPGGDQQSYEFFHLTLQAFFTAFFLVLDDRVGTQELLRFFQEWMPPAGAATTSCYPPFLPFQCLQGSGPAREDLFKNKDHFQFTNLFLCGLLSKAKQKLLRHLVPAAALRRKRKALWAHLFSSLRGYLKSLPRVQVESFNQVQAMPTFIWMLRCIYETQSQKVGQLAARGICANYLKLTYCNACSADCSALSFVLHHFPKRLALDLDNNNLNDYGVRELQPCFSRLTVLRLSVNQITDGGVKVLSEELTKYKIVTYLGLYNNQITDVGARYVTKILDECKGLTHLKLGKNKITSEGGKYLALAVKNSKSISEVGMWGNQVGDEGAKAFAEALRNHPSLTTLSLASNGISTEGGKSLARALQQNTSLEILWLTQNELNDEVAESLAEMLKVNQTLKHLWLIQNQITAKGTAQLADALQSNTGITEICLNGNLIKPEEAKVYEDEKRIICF

Interleukin-8 [11] = target: T7, Interleukin-8 (Homo sapiens, UniProt P10145); assay: SAR analysis of Tumor necrosis factor alpha (TNF-alpha) induced IL-8 secretion in MCF-7/NOD1 cells - Set 2. [Related pubchem assays (depositor defined):AID1575, AID2250, AID2260]; type: functional, cell-based
Interleukin-8 [12] = target: T7, Interleukin-8; assay: SAR analysis of GM-Tri-DAP induced IL-8 secretion in MCF-7/NOD1 cells - Set 2. [Related pubchem assays (depositor defined):AID1575, AID1578, AID2333]; type: functional, cell-based
[13] = target: T8, Nucleotide-binding oligomerization domain-containing protein 2 (Homo sapiens, UniProt Q9HC29); assay: inhibition of NOD2 signaling – set 2, SAR follow-up (AID 2475); type: functional
HEK293 [14] = assay: SAR analysis of compounds that are cytotoxic to HEK293 - Set 2. [Related pubchem assays (depositor defined):AID1575, AID1578, AID1849, AID2001, AID2333, AID2334, AID2335, AID2337, AID2800]; type: functional, cell-based; conditions: Homo sapiens
[15] = target: T6, Nucleotide-binding oligomerization domain-containing protein 1; assay: SAR analysis of compounds that inhibit NOD1 - Set 3. [Related pubchem assays (depositor defined):AID1566, AID1575, AID1578, AID1849, AID1852, AID2333, AID2335, AID2466]; type: functional
Tumor necrosis factor [16] = target: T9, Tumor necrosis factor (Homo sapiens, UniProt P01375); assay: analog potency on TNFa NF-kB signaling – cell-based, set 3, SAR follow-up (AID 2801); type: functional
HEK293 [17] = assay: SAR analysis of compounds that are cytotoxic to HEK293 - Set 3. [Related pubchem assays (depositor defined):AID1575, AID1578, AID1848, AID1849, AID2001, AID2333, AID2334, AID2335, AID2337, AID2469]; type: functional, cell-based; conditions: Homo sapiens
[18] = target: T8, Nucleotide-binding oligomerization domain-containing protein 2; assay: inhibition of MDP-driven NOD2 NF-kB reporter – cell-based, set 3, SAR follow-up (AID 2799); type: functional
Tumor necrosis factor [19] = target: T9, Tumor necrosis factor; assay: analog potency on TNFa NF-kB signaling – cell-based, revised, SAR follow-up (AID 2337); type: functional
[20] = target: T6, Nucleotide-binding oligomerization domain-containing protein 1; assay: blockers of NOD1 pathway activity – revised, SAR follow-up (AID 2333); type: functional
[21] = target: T8, Nucleotide-binding oligomerization domain-containing protein 2; assay: PubChem AID 2334; type: functional
HEK293 [22] = assay: cells; conditions: Homo sapiens
[23] = target: Sphingosine 1-phosphate receptor 5 (Homo sapiens, UniProt Q9H228); assay: Late stage counterscreen assay for S1P4 antagonists: Fluorescence dose response cell-based screening assay for antagonists of the Sphingosine 1-Phosphate Receptor 5 (S1P5). [Related pubchem assays (depositor defined):AID1510, AID1524, AID1692, AID1853, AID2332, AID489009, AID489017]; type: functional
[24] = target: Sphingosine 1-phosphate receptor 3 (Homo sapiens, UniProt Q99500); assay: Late stage counterscreen assay for S1P4 antagonists: Fluorescence dose response cell-based screening assay for antagonists of the Sphingosine 1-Phosphate Receptor 3 (S1P3). [Related pubchem assays (depositor defined):AID1510, AID1524, AID1692, AID1853, AID2332, AID489009, AID489017]; type: functional
[25] = target: Sphingosine 1-phosphate receptor 1 (Homo sapiens, UniProt P21453); assay: Late stage counterscreen assay for S1P4 antagonists: Fluorescence dose response cell-based screening assay for antagonists of the Sphingosine 1-Phosphate Receptor 1 (S1P1). [Related pubchem assays (depositor defined):AID1510, AID1524, AID1692, AID1853, AID2332, AID489009, AID489017]; type: functional
[26] = target: Sphingosine 1-phosphate receptor 2 (Homo sapiens, UniProt O95136); assay: Late stage counterscreen assay for S1P4 antagonists: Fluorescence dose response cell-based screening assay for antagonists of the Sphingosine 1-Phosphate Receptor 2 (S1P2). [Related pubchem assays (depositor defined):AID1510, AID1524, AID1692, AID1853, AID2332, AID489009, AID489017]; type: functional
[27] = HPDE-C7 pancreatic duct cell viability loss – fluorescence, HTS (AID 430); type: functional, cell-based; conditions: Homo sapiens
[28] = viability loss of HPDE-C7K cells – cell-based, fluorescence, HTS, primary screen (AID 431); type: functional; conditions: Homo sapiens
Exodeoxyribonuclease V = Exodeoxyribonuclease V (Escherichia coli (strain K12), UniProt P04993+P07648+P08394); assay: RecBCD inhibition via phage-restricted bacterial growth – absorbance, V66 E. coli, mutant T4 phage, counter-screen for AddAB inhibitor project, dose response (AID 492957); type: functional, cell-based, Escherichia coli str. K-12 substr. MG1655
[29] = Counterscreen for AddAB inhibitors: absorbance-based bacterial cell-based high throughput dose response assay for inhibitors of bacterial viability. [Related pubchem assays (depositor defined):AID435030, AID449728, AID449731, AID488942, AID488955, AID488956]; type: functional
Mu-type opioid receptor [30] = target: T10, Mu-type opioid receptor (Homo sapiens, UniProt P35372); assay: mu opioid receptor activators, image-based, SAR follow-up (AID 2352); type: functional
[31] = target: T11, Delta-type opioid receptor (Homo sapiens, UniProt P41143); assay: DOR agonists, SAR follow-up, image-based (AID 2370); type: functional
[32] = target: T12, Kappa-type opioid receptor (Homo sapiens, UniProt P41145); assay: kappa opioid receptor blockers, image-based, SAR follow-up (AID 2348); type: functional
Mu-type opioid receptor [33] = target: T10, Mu-type opioid receptor; assay: mu opioid receptor blockers – image-based, SAR follow-up (AID 2420); type: functional;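 further: compounds added before stimulation of receptor with agonist DAMGO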
[34] = target: T12, Kappa-type opioid receptor; assay: kappa opioid receptor activation potency – imaging, image-based, SAR follow-up (AID 2359); type: functional
[35] = target: T11, Delta-type opioid receptor; assay: delta opioid receptor blockers – image-based, SAR follow-up (AID 2357); type: functional
[36] = target: T12, Kappa-type opioid receptor; assay: kappa opioid receptor blockers, cell-based, luminescence, beta-arrestin, SAR follow-up (AID 2285); type: functional

T8 sequence (Q9HC29 whole entry, the tested form may be a part): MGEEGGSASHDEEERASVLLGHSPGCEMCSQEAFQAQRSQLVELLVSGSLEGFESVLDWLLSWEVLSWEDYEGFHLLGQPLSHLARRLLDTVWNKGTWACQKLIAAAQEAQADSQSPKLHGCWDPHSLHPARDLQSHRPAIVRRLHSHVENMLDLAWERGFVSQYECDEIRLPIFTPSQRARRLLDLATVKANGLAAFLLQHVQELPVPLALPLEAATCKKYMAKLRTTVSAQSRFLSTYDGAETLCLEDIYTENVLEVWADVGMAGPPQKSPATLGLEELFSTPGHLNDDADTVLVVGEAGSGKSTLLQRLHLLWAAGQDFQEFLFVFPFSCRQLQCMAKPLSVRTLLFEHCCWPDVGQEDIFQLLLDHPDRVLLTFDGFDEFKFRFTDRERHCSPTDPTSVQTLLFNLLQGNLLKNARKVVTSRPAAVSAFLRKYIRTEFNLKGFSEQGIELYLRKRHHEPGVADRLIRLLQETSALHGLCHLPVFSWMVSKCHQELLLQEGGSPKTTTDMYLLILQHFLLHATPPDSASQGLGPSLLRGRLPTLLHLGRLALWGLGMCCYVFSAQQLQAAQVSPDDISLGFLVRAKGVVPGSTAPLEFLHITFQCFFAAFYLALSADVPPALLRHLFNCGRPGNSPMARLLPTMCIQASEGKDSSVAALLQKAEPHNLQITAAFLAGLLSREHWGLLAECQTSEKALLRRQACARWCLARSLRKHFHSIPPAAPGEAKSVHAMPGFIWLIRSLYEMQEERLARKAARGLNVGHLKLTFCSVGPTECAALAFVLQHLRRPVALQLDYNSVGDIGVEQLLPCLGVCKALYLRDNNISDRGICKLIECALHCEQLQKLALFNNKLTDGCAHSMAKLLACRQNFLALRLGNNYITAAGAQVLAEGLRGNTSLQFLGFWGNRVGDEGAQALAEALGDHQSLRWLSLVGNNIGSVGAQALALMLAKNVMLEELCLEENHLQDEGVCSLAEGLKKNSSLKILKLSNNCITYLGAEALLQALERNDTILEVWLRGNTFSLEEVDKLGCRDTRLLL
T12 sequence (P41145 whole entry): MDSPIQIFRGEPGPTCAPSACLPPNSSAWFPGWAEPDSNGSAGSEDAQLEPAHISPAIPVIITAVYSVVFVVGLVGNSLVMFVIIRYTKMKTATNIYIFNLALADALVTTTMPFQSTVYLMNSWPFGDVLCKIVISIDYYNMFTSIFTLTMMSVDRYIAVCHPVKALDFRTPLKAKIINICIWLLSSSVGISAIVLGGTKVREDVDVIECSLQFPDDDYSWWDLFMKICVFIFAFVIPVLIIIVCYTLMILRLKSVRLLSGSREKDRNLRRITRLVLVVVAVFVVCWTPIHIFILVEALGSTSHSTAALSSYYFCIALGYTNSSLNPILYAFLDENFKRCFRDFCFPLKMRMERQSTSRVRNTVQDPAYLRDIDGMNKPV
T7 sequence (P10145 whole entry): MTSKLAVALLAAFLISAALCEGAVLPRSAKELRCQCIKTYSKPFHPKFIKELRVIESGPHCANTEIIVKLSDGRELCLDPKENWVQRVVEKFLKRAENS
T3 sequence (P21554 whole entry): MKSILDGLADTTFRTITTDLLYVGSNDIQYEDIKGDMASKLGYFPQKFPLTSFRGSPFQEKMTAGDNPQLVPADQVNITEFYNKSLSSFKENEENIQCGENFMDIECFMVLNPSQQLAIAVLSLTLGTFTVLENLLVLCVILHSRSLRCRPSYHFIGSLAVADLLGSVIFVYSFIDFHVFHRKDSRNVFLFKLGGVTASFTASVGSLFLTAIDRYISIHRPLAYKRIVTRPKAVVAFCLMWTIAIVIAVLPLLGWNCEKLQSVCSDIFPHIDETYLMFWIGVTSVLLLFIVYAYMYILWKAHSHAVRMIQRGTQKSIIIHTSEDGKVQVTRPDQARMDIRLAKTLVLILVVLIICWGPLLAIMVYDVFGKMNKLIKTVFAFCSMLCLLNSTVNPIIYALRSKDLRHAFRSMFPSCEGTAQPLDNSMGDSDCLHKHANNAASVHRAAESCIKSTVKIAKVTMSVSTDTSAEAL
T5 sequence (P34972 whole entry): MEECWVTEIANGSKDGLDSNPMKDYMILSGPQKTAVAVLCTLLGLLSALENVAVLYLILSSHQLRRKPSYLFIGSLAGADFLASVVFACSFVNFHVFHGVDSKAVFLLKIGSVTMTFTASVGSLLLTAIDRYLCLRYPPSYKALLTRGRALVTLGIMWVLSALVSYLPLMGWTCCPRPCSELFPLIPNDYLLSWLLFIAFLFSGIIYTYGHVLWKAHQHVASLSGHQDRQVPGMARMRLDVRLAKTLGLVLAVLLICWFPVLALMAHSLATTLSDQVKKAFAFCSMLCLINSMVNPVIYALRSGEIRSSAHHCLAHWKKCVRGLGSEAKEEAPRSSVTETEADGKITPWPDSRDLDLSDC
T2 sequence (Q9Y2T6 whole entry): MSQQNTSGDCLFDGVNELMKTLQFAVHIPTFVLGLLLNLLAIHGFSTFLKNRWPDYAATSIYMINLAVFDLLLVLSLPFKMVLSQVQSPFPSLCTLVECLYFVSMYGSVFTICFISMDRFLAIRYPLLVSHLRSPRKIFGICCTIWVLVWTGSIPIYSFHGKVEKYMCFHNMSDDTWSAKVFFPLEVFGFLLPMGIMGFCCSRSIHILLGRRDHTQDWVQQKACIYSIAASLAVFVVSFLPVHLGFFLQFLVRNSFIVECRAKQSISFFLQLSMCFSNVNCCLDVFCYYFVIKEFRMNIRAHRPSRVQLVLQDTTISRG
T10 sequence (P35372 whole entry): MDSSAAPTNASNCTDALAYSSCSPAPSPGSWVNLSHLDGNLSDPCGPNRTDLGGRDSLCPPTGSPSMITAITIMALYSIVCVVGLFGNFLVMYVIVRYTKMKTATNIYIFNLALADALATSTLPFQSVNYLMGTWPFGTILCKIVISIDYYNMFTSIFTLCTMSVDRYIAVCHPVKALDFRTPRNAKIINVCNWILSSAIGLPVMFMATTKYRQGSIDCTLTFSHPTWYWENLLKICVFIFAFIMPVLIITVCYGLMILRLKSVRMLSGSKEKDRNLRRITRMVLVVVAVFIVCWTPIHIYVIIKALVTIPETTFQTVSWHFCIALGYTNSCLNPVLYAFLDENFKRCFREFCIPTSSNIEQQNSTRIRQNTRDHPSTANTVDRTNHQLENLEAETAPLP
T4 sequence (Q9HC97 whole entry): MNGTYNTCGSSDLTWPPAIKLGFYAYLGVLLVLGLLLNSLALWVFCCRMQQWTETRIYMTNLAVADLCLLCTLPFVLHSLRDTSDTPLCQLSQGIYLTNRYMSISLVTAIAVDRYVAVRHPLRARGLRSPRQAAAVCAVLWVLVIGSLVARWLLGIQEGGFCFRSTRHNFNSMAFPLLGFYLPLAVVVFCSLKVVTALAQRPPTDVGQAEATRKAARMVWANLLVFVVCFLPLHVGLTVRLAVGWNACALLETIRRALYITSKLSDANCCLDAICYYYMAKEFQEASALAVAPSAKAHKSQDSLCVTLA
T11 sequence (P41143 whole entry): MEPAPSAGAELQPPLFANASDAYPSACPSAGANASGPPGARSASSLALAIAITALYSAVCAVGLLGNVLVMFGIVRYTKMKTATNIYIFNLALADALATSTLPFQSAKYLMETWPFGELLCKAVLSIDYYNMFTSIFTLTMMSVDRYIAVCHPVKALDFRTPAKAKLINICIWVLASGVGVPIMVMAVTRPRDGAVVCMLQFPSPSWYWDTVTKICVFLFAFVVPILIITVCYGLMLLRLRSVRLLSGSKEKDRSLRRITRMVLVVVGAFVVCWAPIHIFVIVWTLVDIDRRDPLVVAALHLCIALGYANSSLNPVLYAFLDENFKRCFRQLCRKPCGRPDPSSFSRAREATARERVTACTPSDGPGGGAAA
T9 sequence (P01375 whole entry): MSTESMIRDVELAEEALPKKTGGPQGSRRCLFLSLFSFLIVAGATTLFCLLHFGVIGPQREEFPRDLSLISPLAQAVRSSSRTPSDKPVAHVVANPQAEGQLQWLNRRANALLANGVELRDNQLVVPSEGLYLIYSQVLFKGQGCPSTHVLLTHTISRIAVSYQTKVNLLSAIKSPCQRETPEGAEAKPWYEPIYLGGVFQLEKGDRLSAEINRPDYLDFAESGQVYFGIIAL
Sphingosine 1-phosphate receptor 2, sequence (O95136 whole entry): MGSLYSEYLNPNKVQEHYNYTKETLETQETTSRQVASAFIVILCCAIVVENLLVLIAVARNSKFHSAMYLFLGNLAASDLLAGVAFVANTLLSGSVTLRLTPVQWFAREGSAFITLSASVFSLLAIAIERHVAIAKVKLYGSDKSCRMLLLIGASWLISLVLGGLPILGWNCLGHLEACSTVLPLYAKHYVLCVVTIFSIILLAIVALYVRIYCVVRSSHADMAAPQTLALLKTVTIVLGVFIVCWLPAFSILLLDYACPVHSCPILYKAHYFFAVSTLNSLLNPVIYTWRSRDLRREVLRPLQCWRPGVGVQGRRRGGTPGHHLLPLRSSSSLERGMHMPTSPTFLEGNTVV
Sphingosine 1-phosphate receptor 5, sequence (Q9H228 whole entry): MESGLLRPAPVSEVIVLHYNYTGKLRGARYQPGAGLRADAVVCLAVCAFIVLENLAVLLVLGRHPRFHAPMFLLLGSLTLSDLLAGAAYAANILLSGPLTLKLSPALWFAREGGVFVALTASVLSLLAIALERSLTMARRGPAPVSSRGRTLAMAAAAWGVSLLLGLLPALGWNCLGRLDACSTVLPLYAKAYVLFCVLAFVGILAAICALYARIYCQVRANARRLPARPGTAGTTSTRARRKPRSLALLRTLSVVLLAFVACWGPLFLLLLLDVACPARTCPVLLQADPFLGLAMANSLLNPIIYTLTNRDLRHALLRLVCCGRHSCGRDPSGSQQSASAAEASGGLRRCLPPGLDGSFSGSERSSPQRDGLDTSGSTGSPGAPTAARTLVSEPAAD

Cc1ccc(-n2cc3c(-c4cccc(Br)c4)nnc(C)c3n2)cc1
active: EC50 [1] 7.37 µM | EC50 (Streptokinase A) 94.1 µM | IC50 [2] 2.21 µM | EC50 (Streptococcus) 46.9 µM | IC50 (Cannabinoid receptor 1 [3]) 2.94 µM | IC50 [8] 1.24 µM
inactive: EC50 [4] > 32 µM | IC50 (Cannabinoid receptor 2 [5]) 23.8 µM | EC50 (Cannabinoid receptor 1 [6]) > 32 µM | IC50 [7] > 32 µM | EC50 (Cannabinoid receptor 2 [9]) > 32 µM

C/C=C/Cn1c(SCc2ccccc2)nc2c1c(=O)[nH]c(=O)n2C
active: IC50 [15] 18.6 µM
inactive: IC50 [10] > 25 µM | IC50 (Interleukin-8 [11]) > 25 µM | IC50 (Interleukin-8 [12]) > 25 µM | IC50 [13] > 20 µM | IC50 (HEK293 [14]) > 20 µM | IC50 (Tumor necrosis factor [16]) > 20 µM | IC50 (HEK293 [17]) > 20 µM | IC50 [18] > 20 µM

CC(=O)Nc1nc2ccccc2n1S(=O)(=O)c1ccc(C)cc1
inactive: IC50 (Tumor necrosis factor [19]) > 20 µM | IC50 [21] > 20 µM | IC50 (HEK293 [22]) > 20 µM
active: IC50 [20] 3.8 µM

COc1cccc(C)c1NC(=O)c1ccc(-c2cc(Cl)ccc2Cl)o1
active: IC50 [24] 9.87 µM | IC50 [25] 9.31 µM | IC50 [26] 4.77 µM
inactive: IC50 [23] 11.2 µM

O=C(Nc1nnc(-c2ccccc2)o1)c1ccc(Cl)cc1
active: EC50 [1] 0.26 µM | EC50 [27] 3.14 µM | EC50 [28] 3.15 µM | EC50 (Streptococcus) 0.67 µM
inactive: IC50 (Exodeoxyribonuclease V) 44.2 µM | IC50 [29] 47 µM

O=C(NC(NC(=S)Nc1cccc(Br)c1)C(Cl)(Cl)Cl)OCc1ccccc1 (stereo unspecified)
inactive: EC50 (Mu-type opioid receptor [30]) > 32 µM | EC50 [31] > 32 µM | IC50 [32] > 32 µM | IC50 (Mu-type opioid receptor [33]) > 32 µM | EC50 [34] > 32 µM | IC50 [35] > 32 µM | IC50 [36] > 10 µM
